Laboratory results: patent publication US12674148B2, “Cell-based reporter assay for screening inhibitors of coronavirus RNA-dependent RNA polymerase activity” (priority 2020, dated 2026)
“Also recorded” adds a separate entry of the source.

Assays:
MERS-CoV RdRp = MERS-CoV RdRp (Middle East respiratory syndrome-related coronavirus, UniProt K9N7C7); assay: cell-based; details: for inhibition at 100 µM: read-out: inhibition / reduction of MERS-CoV RdRp activity
HEK293T cells = assay: cytotoxicity / cell viability (CellTiter 96 AQueous One Solution)
[1] = HEK-293T, read-out: MERS-CoV RdRp activity (%)

Sequence of MERS-CoV RdRp (K9N7C7 4378-5310 limits assumed): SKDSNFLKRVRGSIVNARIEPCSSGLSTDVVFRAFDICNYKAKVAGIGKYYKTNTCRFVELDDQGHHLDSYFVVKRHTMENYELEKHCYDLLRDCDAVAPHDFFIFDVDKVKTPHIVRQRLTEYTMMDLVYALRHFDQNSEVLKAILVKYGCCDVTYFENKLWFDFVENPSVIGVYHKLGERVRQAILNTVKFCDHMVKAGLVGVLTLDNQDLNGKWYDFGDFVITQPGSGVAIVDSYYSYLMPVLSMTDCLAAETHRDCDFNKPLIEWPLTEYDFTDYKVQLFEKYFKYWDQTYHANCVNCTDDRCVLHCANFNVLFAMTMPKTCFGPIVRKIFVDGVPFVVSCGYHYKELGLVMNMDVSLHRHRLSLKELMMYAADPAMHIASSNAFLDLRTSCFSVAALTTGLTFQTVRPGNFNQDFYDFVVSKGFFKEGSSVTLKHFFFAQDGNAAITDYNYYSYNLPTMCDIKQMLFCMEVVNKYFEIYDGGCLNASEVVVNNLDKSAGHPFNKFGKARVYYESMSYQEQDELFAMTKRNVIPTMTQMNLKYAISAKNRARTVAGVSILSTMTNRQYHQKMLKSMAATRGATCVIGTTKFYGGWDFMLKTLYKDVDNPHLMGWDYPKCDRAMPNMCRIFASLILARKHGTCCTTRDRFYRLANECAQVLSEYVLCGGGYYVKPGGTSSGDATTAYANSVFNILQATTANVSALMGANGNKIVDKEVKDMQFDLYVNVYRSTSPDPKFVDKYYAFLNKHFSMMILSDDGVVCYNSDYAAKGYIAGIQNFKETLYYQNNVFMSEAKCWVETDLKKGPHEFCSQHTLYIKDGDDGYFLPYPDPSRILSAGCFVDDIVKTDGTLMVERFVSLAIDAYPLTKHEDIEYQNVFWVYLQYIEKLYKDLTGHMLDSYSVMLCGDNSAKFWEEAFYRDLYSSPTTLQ

| Structure (SMILES) | effect on MERS-CoV RdRp activity (in words) (MERS-CoV RdRp) | activity at 100 µM (MERS-CoV RdRp; [1]) [%] | inhibition at 100 µM (MERS-CoV RdRp; HEK-293T) [%] | other results |
| --- | --- | --- | --- | --- |
| COc1c(-c2ccc3cc(NS(C)(=O)=O)ccc3c2)cc(-n2ccc(=O)[nH]c2=O)cc1C(C)(C)C [dasabuvir] | significantly inhibited, but not completely inhibited |  |  | IC50 (MERS-CoV RdRp): 11.6 µM; reduction of MERS-CoV RdRp activity (MERS-CoV RdRp): about 50%; activity at 10 µM (MERS-CoV RdRp; [1]): 51.5 ± 4.2%; cytotoxicity (HEK293T cells; HEK293T cells, 10 μM, 18 hours): no cytotoxicity was observed; concentration at which cytotoxicity was reduced by half (HEK293T cells; HEK293T cells, 18 hours): 27.143 µM; cytotoxicity (HEK293T cells; HEK293T cells, concentration exceeding 10 μM, 18 hours): cytotoxicity was observed |
| NC(=O)c1nc(F)c[nH]c1=O [favipiravir] | no significant effect | 85.8 ± 2.4 | ~10 |  |
| Nc1ccn([C@@H]2CS[C@H](CO)O2)c(=O)n1 [lamivudine] |  | 98.3 ± 1.2 |  |  |
| CCC(CC)COC(=O)[C@H](C)N[P@](=O)(OC[C@H]1O[C@@](C#N)(c2ccc3c(N)ncnn23)[C@H](O)[C@@H]1O)Oc1ccccc1 [remdesivir] |  |  |  | IC50 (MERS-CoV RdRp): 5.028 ± 0.035 µM; activity at 12 µM (MERS-CoV RdRp; [1]): 22.3 ± 0.3%; cytotoxicity (HEK293T cells; HEK293T cells, 12 μM): no cytotoxicity was observed |
| NC(=O)c1ncn([C@@H]2O[C@H](CO)[C@@H](O)[C@H]2O)n1 [ribavirin] | no significant effect | 60.3 ± 2.9 | ~40 |  |
| CC(C)OC(=O)[C@H](C)N[P@](=O)(OC[C@H]1O[C@@H](n2ccc(=O)[nH]c2=O)[C@](C)(F)[C@@H]1O)Oc1ccccc1 [sofosbuvir] | no significant effect | 62.4 ± 5.3 | ~40 |  |
| CC(C)[C@H](N)C(=O)OCCOCn1cnc2c(=O)[nH]c(N)nc21 [valacyclovir] | did not reduce; also recorded: no significant effect | 90.2 ± 3.2 |  |  |
| Nc1ncnc2c1ncn2[C@@H]1O[C@H](CO)[C@@H](O)[C@@H]1O [vidarabine] | did not reduce; also recorded: did not affect the NLuc/FLuc ratio or MERS-CoV RdRp activity; also recorded: no significant effect | 89.9 ± 2.9 |  | FLuc activity (internal control) (MERS-CoV RdRp): reduced in a concentration-dependent manner; NLuc activity (MERS-CoV RdRp): reduced in a concentration-dependent manner; cytotoxicity (HEK293T cells; concentration not stated (tested up to 100 μM)): did not show cytotoxicity |
| Cc1cn([C@H]2C[C@H](N=[N+]=[N-])[C@@H](CO)O2)c(=O)[nH]c1=O [zidovudine] | did not reduce; also recorded: no significant effect | 111 ± 3.7 |  |  |
